Source: patent publication US20230172897A1, “METHODS OF TREATING BREAST CANCERS WITH SELECTIVE ANDROGEN RECEPTOR MODULATORS AND ADDITIONAL THERAPEUTIC AGENTS” (VERU, INC., priority 2021, published 2023)
Where “and” joins values, the source holds several entries; their conditions need not be identical. Equal entries are not always repeated.

Tests used:
[1] = target: T1, MR (Rattus norvegicus, UniProt P22199); experiment: Transcriptional activation (luciferase) in HEK-293 cells; format: cell-based
T1 construct: expressed in transfected cells
T1 sequence (P22199 1-981): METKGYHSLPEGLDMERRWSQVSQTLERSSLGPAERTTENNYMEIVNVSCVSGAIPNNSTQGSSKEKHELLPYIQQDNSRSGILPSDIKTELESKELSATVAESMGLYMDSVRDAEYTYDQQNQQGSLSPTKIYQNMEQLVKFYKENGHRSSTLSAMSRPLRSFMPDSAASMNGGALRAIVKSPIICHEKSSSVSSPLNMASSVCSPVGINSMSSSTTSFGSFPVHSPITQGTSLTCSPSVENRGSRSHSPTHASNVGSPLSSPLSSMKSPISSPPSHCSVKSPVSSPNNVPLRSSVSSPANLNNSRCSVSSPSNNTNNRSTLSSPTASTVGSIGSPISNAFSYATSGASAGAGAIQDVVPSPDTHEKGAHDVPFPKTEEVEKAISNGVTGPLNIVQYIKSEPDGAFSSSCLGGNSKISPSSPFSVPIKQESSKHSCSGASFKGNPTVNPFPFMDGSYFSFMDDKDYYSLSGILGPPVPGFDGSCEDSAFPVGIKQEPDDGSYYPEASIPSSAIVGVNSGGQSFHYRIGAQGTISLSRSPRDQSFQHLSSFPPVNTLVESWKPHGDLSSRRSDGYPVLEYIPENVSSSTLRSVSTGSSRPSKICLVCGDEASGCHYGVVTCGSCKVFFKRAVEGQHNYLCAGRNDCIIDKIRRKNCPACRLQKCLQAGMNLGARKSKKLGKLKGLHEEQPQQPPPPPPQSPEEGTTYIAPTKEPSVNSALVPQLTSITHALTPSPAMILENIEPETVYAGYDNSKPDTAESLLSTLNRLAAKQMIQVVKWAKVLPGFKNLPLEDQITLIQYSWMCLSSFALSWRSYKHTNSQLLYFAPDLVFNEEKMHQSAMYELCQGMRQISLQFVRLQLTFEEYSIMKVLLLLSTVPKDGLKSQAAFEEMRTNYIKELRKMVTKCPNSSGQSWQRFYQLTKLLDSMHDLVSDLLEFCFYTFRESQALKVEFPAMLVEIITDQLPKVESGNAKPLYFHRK
Description: (§1) Rat GR, MR, PR, ER-α and ER-β were individually cloned into a pCR3.1 vector backbone. Sequencing was performed to verify the absence of any mutations. HEK-293 cells were plated at 90,000 cells per well of a 24 well plate in Dulbecco's Minimal Essential Media supplemented with 5% charcoal-stripped FBS. […] Luciferase assays were performed 48 h after transfection. Transcriptional activation values are represented as firefly luciferase normalized to renilla luciferase.

[2] = target: T2, ER-α (Rattus norvegicus, UniProt P06211); experiment: as above; format: cell-based
T2 construct: expressed in transfected cells
Description: as §1

[3] = tested on: ER-positive metastatic breast cancer; experiment: Phase 2 clinical trial (G200801), 9 mg daily; format: in vivo, women
Description: The goal of this study was to determine the importance of the AR status as a therapeutic target in women with ER-positive metastatic breast cancer (MBC) that had previously responded to hormone therapy. The treatment was continued until disease progression (PD).
CBR will be correlated with AR status of metastatic tumor biopsy.
Serum prostate specific antigen (PSA) was evaluated as a biomarker of AR activity.
Female subjects with ER-positive metastatic breast cancer who have previously been treated with up to 3 prior hormonal therapies for the treatment of breast cancer. Subjects must have been treated with and responded to previous adjuvant therapy for ≥3 years or hormonal therapy for metastatic disease for >6 months prior to progression. Details of subject selection criteria are presented below:
Measurable and non-measurable lesions (primary and/or metastatic) were identified and assessed by a modified Response Evaluation Criteria In Solid Tumors (RECIST 1.1) classification over the course of this study (described in detail below).
The primary efficacy analysis was the clinical benefit in subjects with AR-positive breast cancer at 6 months as measured by a modified Response Evaluation Criteria In Solid Tumors (RECIST 1.1) classification. Key secondary endpoints of clinical benefit in all subjects and AR-negative subjects, as well as objective response rate, progression free survival, time to progression, duration of response, incidence of SREs, and time to first SRE in subsets based on AR status (i.e., all subjects, AR-positive subjects, and AR-negative subjects) was also assessed. Effects on CA 27-29, PSA, bone turnover markers, QOL, and libido were assessed as tertiary endpoints.
Clinical benefit in a subject is defined as a complete response [CR], a partial response [PR] or stable disease [SD] as measured by modified RECIST 1.1, which is described in detail below. (Eisenhauer E A et al. New response evaluation criteria in solid tumors: revised RECIST guideline (version 1.1). European Journal of Cancer 45:228-247, 2009).

[4] = 9 mg daily, individual patients

T2 sequence (P06211 whole entry): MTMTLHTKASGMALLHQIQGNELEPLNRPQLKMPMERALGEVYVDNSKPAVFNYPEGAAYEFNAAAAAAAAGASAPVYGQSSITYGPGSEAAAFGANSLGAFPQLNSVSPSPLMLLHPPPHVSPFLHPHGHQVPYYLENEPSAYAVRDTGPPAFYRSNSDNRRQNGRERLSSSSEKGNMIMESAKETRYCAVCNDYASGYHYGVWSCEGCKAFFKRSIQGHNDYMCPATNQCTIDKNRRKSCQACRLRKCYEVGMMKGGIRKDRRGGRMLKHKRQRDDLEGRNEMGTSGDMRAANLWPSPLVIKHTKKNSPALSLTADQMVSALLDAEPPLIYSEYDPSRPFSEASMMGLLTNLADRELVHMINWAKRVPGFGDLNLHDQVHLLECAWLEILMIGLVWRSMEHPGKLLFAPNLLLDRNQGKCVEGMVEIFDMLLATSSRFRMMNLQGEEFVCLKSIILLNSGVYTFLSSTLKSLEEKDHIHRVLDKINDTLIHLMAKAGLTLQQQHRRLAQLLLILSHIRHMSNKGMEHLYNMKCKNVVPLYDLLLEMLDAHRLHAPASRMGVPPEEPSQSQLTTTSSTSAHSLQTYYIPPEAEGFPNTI

`C[C@](O)(COc1ccc(C#N)cc1)C(=O)Nc1ccc(C#N)c(Cl)c1` [Formula VIII, (S)—N-(3-chloro-4-cyanophenyl)-3-(4-cyanophenoxy)-2-hydroxy-2-methylpropanamide] was tested, and the MR-mediated transactivation ([1]; agonist mode, all tested concentrations) was “did not induce”, the “aldosterone-induced MR-mediated transactivation” value ([1]; antagonist mode) was “failed to alter” and the ER-α-mediated transactivation ([2]; agonist mode, highest tested concentration 1 μM) was “failed to activate”. For the same compound, the “17β-estradiol-induced ER-α activity” value ([2]; antagonist mode) was “failed to alter”.

For `C[C@](O)(COc1ccc(C#N)cc1)C(=O)Nc1ccc(C#N)c(C(F)(F)F)c1` [Formula IX, (S)—N-(4-Cyano-3-(trifluoromethyl)phenyl)-3-(4-cyanophenoxy)-2-hydroxy-2-methylpropanamide], the “CR or PR” value ([3]; 9 mg daily) was “no CR or PR has been observed”, the “adverse event: A-fib” value ([3]; 9 mg daily) was 1 and the “adverse event: anxiety/emotional changes” value ([3]; 9 mg daily) was 5. For the same compound, the “adverse event: arthralgia” value ([3]; 9 mg daily) was 6, the “adverse event: bloating” value ([3]; 9 mg daily) was 2 and the “adverse event: bruising” value ([3]; 9 mg daily) was 1. For the same compound, the “adverse event: cellulitis” value ([3]; 9 mg daily) was 1, the “adverse event: chills” value ([3]; 9 mg daily) was 1 and the “adverse event: constipation” value ([3]; 9 mg daily) was 2. For the same compound, the “adverse event: cough” value ([3]; 9 mg daily) was 1, the “adverse event: dehydration” value ([3]; 9 mg daily) was 1 and the “adverse event: diarrhea” value ([3]; 9 mg daily) was 3. The “adverse event: dizziness” value ([3]; 9 mg daily) was 2, the “adverse event: dysgeusia” value ([3]; 9 mg daily) was 1 and the “adverse event: dyspepsia” value ([3]; 9 mg daily) was 1. For the same compound, the “adverse event: dyspnea” value ([3]; 9 mg daily) was 3, the “adverse event: edema” value ([3]; 9 mg daily) was 2 and the “adverse event: fatigue” value ([3]; 9 mg daily) was 14. The “adverse event: fever” value ([3]; 9 mg daily) was 1, the “adverse event: flatulence” value ([3]; 9 mg daily) was 1 and the “adverse event: glaucoma” value ([3]; 9 mg daily) was 1. For the same compound, the “adverse event: headache” value ([3]; 9 mg daily) was 4, the “adverse event: hot flash night sweats” value ([3]; 9 mg daily) was 7 and the “adverse event: hypertension” value ([3]; 9 mg daily) was 2. For the same compound, the “adverse event: infection” value ([3]; 9 mg daily) was 1, the “adverse event: insomnia” value ([3]; 9 mg daily) was 2 and the “adverse event: myalgia” value ([3]; 9 mg daily) was 5. For the same compound, the “adverse event: nail discoloration” value ([3]; 9 mg daily) was 1, the “adverse event: nausea” value ([3]; 9 mg daily) was 11 and the “adverse event: pain” value ([3]; 9 mg daily) was 22. For the same compound, the “adverse event: paresthesia” value ([3]; 9 mg daily) was 1, the “adverse event: pleural effusion” value ([3]; 9 mg daily) was 1 and the “adverse event: polyuria” value ([3]; 9 mg daily) was 1. For the same compound, the “adverse event: post menopausal bleeding” value ([3]; 9 mg daily) was 3, the “adverse event: stiffness” value ([3]; 9 mg daily) was 1 and the “adverse event: tendonitis” value ([3]; 9 mg daily) was 1. For the same compound, the “adverse event: vision changes” value ([3]; 9 mg daily) was 3, the “adverse event: vomiting” value ([3]; 9 mg daily) was 2 and the “adverse event: weight gain” value ([3]; 9 mg daily) was 2. For the same compound, the “adverse event: weight loss” value ([3]; 9 mg daily) was 2, the “duration of stable disease, one ongoing subject” value ([3]; 9 mg daily) was greater than 336 days and the “liver enzymes (ALT, AST and bilirubin)” value ([3]; 9 mg daily) was “returned to baseline”. The “median duration of SD as best response” value ([3]; 9 mg daily) was 212 days, the “median time to PD” value ([3]; 9 mg daily) was 80 days and the “patients who reached 6 m that are AR-positive with SD and increased PSA” value ([3]; 9 mg daily) was “six”. For the same compound, the “patients with increased PSA levels” value ([3]; 9 mg daily) was 20 of the 22, the “subjects with progressive disease at 6 months or prior” value ([3]; 9 mg daily) was “N = 12” and the tolerability ([3]; 9 mg daily) was “well-tolerated”. For the same compound, the “patients with PD (current disposition)” value ([3]; 9 mg daily, 22 patients) was 15, the “patients with SD (current disposition)” value ([3]; 9 mg daily, 22 patients) was 4 and the “subjects achieving CB as best response” value ([3]; 9 mg daily, all subjects) was 41%. For the same compound, the “Current Disposition” value [3, 4] was “D/C (2×) and Deceased (4×)”, the “Day 84 RECIST” value [3, 4] was “D/C SAE and PD SAE and D/C” and the “MAX PSA F/U” value [3, 4] was 2.430 and 0.058 and 0.008 and <0.007 and 0.078 and 0.217 and 9.610 and 0.450 and 3.540 and 0.238 and 8.180 and 0.548 and 0.062 and 0.024 and 13.160 and 0.069 and 0.031 and 0.795 and 0.301 and 0.028 and 0.046 and 0.092. For the same compound, the tolerability ([3]; 9 mg daily, listed as Enobosarm) was “well tolerated”, the “tumor regression in one subject with SD” value ([3]; 9 mg daily, single target lesion) was 27% and the “6-month Kaplan-Meier estimate for radiographic progression free survival” value ([3]; 9 mg oral daily) was 43.8%. For the same compound, the “clinical benefit rate at 6 months” value ([3]; 9 mg oral daily) was 35.3%, the Progression free probability ([3]; Day 84) was 57.5% and the Progression free probability ([3]; Day 168) was 50.5%. For the same compound, the “time to progression (TTP)” value ([3]; seven subjects who achieved CB at six months) was 10.2 months.
